# Assay results taken from patent publication US7247634B2, “Rifamycin derivatives effective against drug-resistant microbes” (Cumbre Pharmaceuticals Inc., priority 2004, dated 2007).
# Legend:
# Type in all cases: cell-based
# [1] = test system: Staphylococcus aureus ATCC29213; assay: MIC, microbroth dilution (NCCLS); details: rifS strain, Cation-Adjusted Mueller-Hinton Broth, 37° C., read-out: Antimicrobial activity (MIC)
# [2] = test system: Staphylococcus aureus ATCC29213 rpoB^D417Y; assay: microbe, parasite or virus in culture; details: ATCC29213, read-out: Antimicrobial activity (MIC)
# In short: (§1)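 MICs by NCCLS broth microdilution, incubation at 37 °C, in cation-adjusted Mueller-Hinton broth. Strains: rifampin-resistant S. aureus ATCC 29213 with rpoB D417Y or H418Y, and quinolone-resistant EN1252a carrying gyrA S84L plus grlA S80F.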
# [3] = test system: Staphylococcus aureus ATCC29213 rpoB^H418Y; assay: microbe, parasite or virus in culture; details: ATCC29213, read-out: Antimicrobial activity (MIC)
# In short: as §1
# [4] = test system: Staphylococcus aureus EN1252a gyrA^S84L grlA^S80F; assay: microbe, parasite or virus in culture; details: read-out: Antimicrobial activity (MIC)
# In short: as §1
# [5] = test system: Staphylococcus epidermidis ATCC12228; assay: MIC, microbroth dilution (NCCLS); details: rifS strain, Cation-Adjusted Mueller-Hinton Broth, 37° C., read-out: Antimicrobial activity (MIC)
# [6] = test system: Streptococcus pneumoniae ATCC6303; assay: MIC, microbroth dilution (NCCLS); details: rifS strain, THY Broth with 1 mg/mL catalase, 5% CO2, 37° C., read-out: Antimicrobial activity (MIC)
# [7] = test system: Streptococcus pyogenes ATCC19615; assay: MIC, microbroth dilution (NCCLS); details: rifS strain, THY Broth, 37° C., read-out: Antimicrobial activity (MIC)
# [8] = test system: Enterococcus faecalis ATCC29212; assay: MIC, microbroth dilution (NCCLS); details: rifS strain, BHI Broth, 37° C., read-out: Antimicrobial activity (MIC)
# [9] = test system: Haemophilus influenzae ATCC10211; assay: MIC, microbroth dilution (NCCLS); details: rifS strain, BHI Broth with NAD and hematin, 37° C., read-out: Antimicrobial activity (MIC)
# [10] = test system: Escherichia coli ATCC25922; assay: MIC, microbroth dilution (NCCLS); details: rifS strain, Cation-Adjusted Mueller-Hinton Broth, 37° C., read-out: Antimicrobial activity (MIC)
# [11] = test system: Mycobacterium smegmatis ATCC700084; assay: MIC, microbroth dilution (NCCLS); details: Mycolicibacterium smegmatis, rifS strain, Middlebrook Broth plus ADC Enrichment, 37° C., read-out: Antimicrobial activity (MIC)
SMILES,MIC [1] [µg/mL],MIC [2] [µg/mL],MIC [3] [µg/mL],MIC [4] [µg/mL],MIC [5] [µg/mL],MIC [6] [µg/mL],MIC [7] [µg/mL],MIC [8] [µg/mL],MIC [9] [µg/mL],MIC [10] [µg/mL],MIC [11] [µg/mL]
"CO[C@H]1/C=C/O[C@@]2(C)Oc3c(C)c(O)c4c(c3C2=O)C(=O)C(NCCN2CCN(c3ccc(N5C[C@H](CNC(C)=O)OC5=O)cc3F)CC2)=C(NC(=O)/C(C)=C\C=C\[C@H](C)[C@H](O)[C@@H](C)[C@@H](O)[C@@H](C)[C@H](OC(C)=O)[C@@H]1C)C4=O [Example 24, (S)-3-[4-[4-(5-Acetylaminomethyl-2-oxo-oxazolidin-3-yl)-2-fluoro-phenyl]-piperazin-1-ylethylamino]-rifamycin S]",0.004 to 0.5,0.06 to 32,0.06 to 16,0.004 to 0.5,0.008 to 0.063,0.008 to 0.125,0.008 to 0.063,2 to 32,0.125 to 2,0.125 to 8,0.5 to 64
"CO[C@H]1/C=C/O[C@@]2(C)Oc3c(C)c(O)c4c(c3C2=O)C(=O)C(NCC2CN(c3cc5c(cc3F)c(=O)c(C(=O)O)cn5C3CC3)C2)=C(NC(=O)/C(C)=C\C=C\[C@H](C)[C@H](O)[C@@H](C)[C@@H](O)[C@@H](C)[C@H](OC(C)=O)[C@@H]1C)C4=O [Example 25, 3-[1-(3-Carboxy-1-cyclopropyl-6-fluoro-4-oxo-1,4-dihydroquinolin-7-yl)azetidin-3-methylamino)rifamycin S]",0.004 to 0.5,0.06 to 32,0.06 to 16,0.004 to 0.5,0.008 to 0.063,0.008 to 0.125,0.008 to 0.063,2 to 32,0.125 to 2,0.125 to 8,0.5 to 64
"COc1c(N2CCN(C3=C4NC(=O)/C(C)=C\C=C\[C@H](C)[C@H](O)[C@@H](C)[C@@H](O)[C@@H](C)[C@H](OC(C)=O)[C@H](C)[C@@H](OC)/C=C/O[C@@]5(C)Oc6c(C)c(O)c(c(c6C5=O)C3=O)C4=O)CC2)c(F)cc2c(=O)c(C(=O)O)cn(C3CC3)c12 [Example 26, 3-[4-(3-Carboxy-1-cyclopropyl-6-fluoro-8-methoxy-4-oxo-1,4-dihydroquinolin-7-yl)-piperazin-1-yl]rifamycin S]",0.004 to 0.5,0.06 to 32,0.06 to 16,0.004 to 0.5,0.008 to 0.063,0.008 to 0.125,0.008 to 0.063,2 to 32,0.125 to 2,0.125 to 8,0.5 to 64
"COc1c(N2CCN(C3CCN(C4=C5NC(=O)/C(C)=C\C=C\[C@H](C)[C@H](O)[C@@H](C)[C@@H](O)[C@@H](C)[C@H](OC(C)=O)[C@H](C)[C@@H](OC)/C=C/O[C@@]6(C)Oc7c(C)c(O)c(c(c7C6=O)C4=O)C5=O)CC3)CC2)c(F)cc2c(=O)c(C(=O)O)cn(C3CC3)c12 [Example 31, 3-{4-[1-(3-Carboxy-1-cyclopropyl-6-fluoro-8-methoxy-4-oxo-1,4-dihydroquinolin-7-yl)-piperazin-4-yl]-piperidin-1-yl}rifamycin S]",0.004 to 0.5,0.06 to 32,0.06 to 16,0.004 to 0.5,0.008 to 0.063,0.008 to 0.125,0.008 to 0.063,2 to 32,0.125 to 2,0.125 to 8,0.5 to 64
"COc1c(N2CC(NC3CCN(C4=C5NC(=O)/C(C)=C\C=C\[C@H](C)[C@H](O)[C@@H](C)[C@@H](O)[C@@H](C)[C@H](OC(C)=O)[C@H](C)[C@@H](OC)/C=C/O[C@@]6(C)Oc7c(C)c(O)c(c(c7C6=O)C4=O)C5=O)CC3)C2)c(F)cc2c(=O)c(C(=O)O)cn(C3CC3)c12 [Example 33, 3-{4-[1-(3-Carboxy-1-cyclopropyl-6-fluoro-8-methoxy-4-oxo-1,4-dihydroquinolin-7-yl)-azetidin-3-ylamino]-piperidin-1-yl}rifamycin S]",0.004 to 0.5,0.06 to 32,0.06 to 16,0.004 to 0.5,0.008 to 0.063,0.008 to 0.125,0.008 to 0.063,2 to 32,0.125 to 2,0.125 to 8,0.5 to 64
